Laboratory results as given in article PMC7215373, “Design, Synthesis, and Anticancer Evaluation of Novel Indole Derivatives of Ursolic Acid as Potential Topoisomerase II Inhibitors” (International Journal of Molecular Sciences, 2020).

Assays:
SMMC-7721 cells = experiment: MTT cytotoxicity assay, SMMC-7721; assay type: cell-based, human; conditions: 48 h exposure
Procedure: (§1) The in vitro cytotoxic activities of synthesized compounds were evaluated against two human hepatocarcinoma cell lines (SMMC-7721 and HepG2) and the human normal hepatocyte cell line (LO2) via MTT assay. All tested compounds were dissolved in DMSO and the stock solutions were diluted by DMEM medium before treatment of the cultured cells. […] Cell lines were obtained from American Tissue Culture Collection (ATCC). Briefly, different tumor cells were grown in DMEM medium supplemented with 10% fetal bovine serum, penicillin (100 U/mL), and streptomycin (50 μg/mL). Cells were harvested at log phase of growth and seeded in 96-well plates (100 μL/well at a density of 2 × 10^5 cells/mL). After 24 h incubation at 37 °C and 5% CO2 to allow cell attachment, cultures were exposed to various concentrations of the isolated compounds for 48 h. Finally, MTT solution (2.5 mg/mL in PBS) was added (40 μL/well). Plates were further incubated for 4 h at 37 °C, and the formazan crystals formed were dissolved by adding 150 μL/well of DMSO. Absorption at 570 nm was measured with an ELISA plate reader. […] Doxorubicin, camptothecin, and etoposide (VP-16) were co-assayed as positive controls.

LO2 cells = experiment: MTT cytotoxicity assay, normal hepatocyte LO2; assay type: cell-based; conditions: Homo sapiens, L02, 48 h exposure, normal hepatocyte cell line
Procedure: as §1

DNA topoisomerase I = molecular target: T1, DNA topoisomerase I (Bos taurus, UniProt F1MN93); experiment: Topoisomerase I relaxation assay (supercoiled pBR322); assay type: biochemical; conditions: 100 μM compound; read-out: Topo I Inhibition (%) 100 μM
T1 construct: purchased TaKaRa, Kyoto, Japan
T1 sequence (F1MN93 1-767): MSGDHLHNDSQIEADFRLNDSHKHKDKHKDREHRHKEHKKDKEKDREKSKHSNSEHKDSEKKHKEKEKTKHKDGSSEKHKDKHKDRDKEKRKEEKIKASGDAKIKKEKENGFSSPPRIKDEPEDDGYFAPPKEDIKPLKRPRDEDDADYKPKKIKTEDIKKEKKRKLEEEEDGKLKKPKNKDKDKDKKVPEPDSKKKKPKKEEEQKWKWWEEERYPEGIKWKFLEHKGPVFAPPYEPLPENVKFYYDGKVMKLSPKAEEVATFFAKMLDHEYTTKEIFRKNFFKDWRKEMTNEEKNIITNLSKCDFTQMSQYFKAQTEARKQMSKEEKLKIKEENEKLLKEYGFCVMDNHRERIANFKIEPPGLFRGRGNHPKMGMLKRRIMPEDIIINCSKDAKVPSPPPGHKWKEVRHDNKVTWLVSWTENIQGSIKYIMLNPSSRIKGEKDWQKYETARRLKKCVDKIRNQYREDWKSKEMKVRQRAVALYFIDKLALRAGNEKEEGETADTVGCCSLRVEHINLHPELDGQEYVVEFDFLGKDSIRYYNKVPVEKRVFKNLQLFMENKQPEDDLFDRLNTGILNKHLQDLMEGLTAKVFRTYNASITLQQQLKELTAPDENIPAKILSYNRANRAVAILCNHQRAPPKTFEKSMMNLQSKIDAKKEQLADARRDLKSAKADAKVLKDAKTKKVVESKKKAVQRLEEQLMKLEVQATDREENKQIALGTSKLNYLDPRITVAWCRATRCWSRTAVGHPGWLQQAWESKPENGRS
Procedure: The effect of the tested compounds on Topo I and II activities were evaluated by Topo I/II relaxation assays. The reaction products, relaxed DNA could be distinguished from supercoiled DNA by gel electrophoresis and visualized using gel imaging system. The activity of DNA topoisomerase I (TaKaRa, Kyoto, Japan) was determined by measuring the relaxation of supercoiled DNA pBR322 [32]. Camptothecin was used as a positive control. The reaction mixture was prepared according to the manufacture's protocol, and incubated at 37 °C for 30 min. The reactions were terminated by adding dye solution containing 1% SDS, 0.02% bromophenol blue and 50% glycerol. The mixtures were applied to 1% agarose gel and subjected to electrophoresis for 1 h, in 1× TAE buffer (40 mM Tris-acetate, 1 mM EDTA). Gels were stained for 30 min in 60 mL 1× TAE buffer with ethidium bromide (0.5 μg/mL). DNA bands were visualized by transillumination with UV light and then photographed by a Gel Doc XR+ System (BIO-RAD, Hercules, CA, USA).

Human Topoisomerase IIα = molecular target: T2, Human Topoisomerase IIα (Homo sapiens, UniProt P11388); experiment: Topoisomerase II relaxation assay (supercoiled pBR322); assay type: biochemical
T2 construct: purchased USB, Affymetrix, Waltham, MA, USA
Procedure: The effect of the tested compounds on Topo I and II activities were evaluated by Topo I/II relaxation assays. The reaction products, relaxed DNA could be distinguished from supercoiled DNA by gel electrophoresis and visualized using gel imaging system. Human Topoisomerase IIα activity was detected by measuring the relaxation of supercoiled pBR322 plasmid DNA [22]. […] For inhibition studies, the compounds were pre-incubated with human Topo IIα and DNA for 15 min. Compounds were used at the appropriate concentrations by dissolving in 2% (v/v) DMSO. DMSO didn't show detrimental effect on the enzyme activity at concentration up to 2% (v/v). Reaction mixture was incubated at 37 °C for 30 min and stopped by the addition of 7 mM EDTA. Reaction product was mixed with DNA loading dye and electrophoresed on 1% TAE-Agarose. The gel was stained with ethidium bromide (0.5 μg/mL) for 30 min, destained twice in 1× TAE buffer, and then visualized using a BIO-RAD Gel Doc XR+ System. Etoposide (VP-16) was co-assayed as a positive control.

T2 sequence (P11388 whole entry): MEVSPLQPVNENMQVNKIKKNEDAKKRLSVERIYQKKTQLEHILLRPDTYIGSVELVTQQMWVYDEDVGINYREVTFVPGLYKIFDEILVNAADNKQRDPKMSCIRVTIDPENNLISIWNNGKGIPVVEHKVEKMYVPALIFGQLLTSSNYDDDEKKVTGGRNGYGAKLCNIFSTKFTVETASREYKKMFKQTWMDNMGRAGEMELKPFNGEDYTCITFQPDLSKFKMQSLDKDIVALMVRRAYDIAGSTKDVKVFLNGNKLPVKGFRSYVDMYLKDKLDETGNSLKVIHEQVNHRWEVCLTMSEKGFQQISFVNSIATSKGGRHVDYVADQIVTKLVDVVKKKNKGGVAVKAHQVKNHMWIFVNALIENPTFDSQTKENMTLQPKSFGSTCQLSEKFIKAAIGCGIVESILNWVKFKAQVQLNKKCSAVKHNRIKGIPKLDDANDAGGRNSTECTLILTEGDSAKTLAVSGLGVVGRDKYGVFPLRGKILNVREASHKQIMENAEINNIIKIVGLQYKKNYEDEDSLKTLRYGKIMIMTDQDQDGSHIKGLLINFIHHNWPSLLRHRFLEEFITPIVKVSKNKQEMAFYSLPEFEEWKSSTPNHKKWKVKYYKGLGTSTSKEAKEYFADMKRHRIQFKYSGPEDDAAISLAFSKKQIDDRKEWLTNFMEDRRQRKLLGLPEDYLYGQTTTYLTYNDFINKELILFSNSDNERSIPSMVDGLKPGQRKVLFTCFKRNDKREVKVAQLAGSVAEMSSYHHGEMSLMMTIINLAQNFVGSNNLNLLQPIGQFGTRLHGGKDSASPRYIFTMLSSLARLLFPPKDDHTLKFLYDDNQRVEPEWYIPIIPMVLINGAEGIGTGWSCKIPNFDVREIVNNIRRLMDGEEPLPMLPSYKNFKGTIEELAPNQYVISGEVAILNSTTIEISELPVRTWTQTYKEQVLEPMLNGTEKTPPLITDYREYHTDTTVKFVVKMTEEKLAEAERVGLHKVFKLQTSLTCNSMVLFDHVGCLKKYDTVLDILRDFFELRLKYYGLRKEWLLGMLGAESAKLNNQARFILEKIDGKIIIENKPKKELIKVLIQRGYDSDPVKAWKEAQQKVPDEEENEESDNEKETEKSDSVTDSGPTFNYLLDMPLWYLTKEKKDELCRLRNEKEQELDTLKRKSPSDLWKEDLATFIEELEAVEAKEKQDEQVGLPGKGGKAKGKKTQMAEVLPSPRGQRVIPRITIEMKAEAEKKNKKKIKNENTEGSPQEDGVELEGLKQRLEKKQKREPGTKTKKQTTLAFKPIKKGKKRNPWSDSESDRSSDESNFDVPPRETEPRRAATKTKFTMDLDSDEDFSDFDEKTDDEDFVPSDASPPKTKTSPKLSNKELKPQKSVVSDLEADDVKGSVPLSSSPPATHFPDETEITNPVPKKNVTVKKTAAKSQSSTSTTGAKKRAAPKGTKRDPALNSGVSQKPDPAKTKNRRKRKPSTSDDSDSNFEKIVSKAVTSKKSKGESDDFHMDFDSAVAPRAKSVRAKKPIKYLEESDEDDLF

Cc1ccc2[nH]c3c(c2c1)C[C@@]1(C)C(CC[C@]2(C)C1CC=C1C4[C@@H](C)[C@H](C)CC[C@]4(C(=O)NCCCN4CCN(C)CC4)CC[C@]12C)C3(C)C (stereo partly drawn) [5f, N-(3-(4-Methylpiperazin-1-yl)propyl)-5′-methyl-1′H-ursa-2,12-dieno[3,2-b]indol-28-carboxamide]
IC50 (SMMC-7721 cells): 0.56 ± 0.08 µM
IC50 (SMMC-7721 cells; Homo sapiens, SMMC-7721, 48 h): ~1 µM
IC50 (LO2 cells): 10.6 ± 0.52 µM
inhibition at 100 µM (DNA topoisomerase I): 0%
inhibition at 20 µM (Human Topoisomerase IIα; 20 μM compound, read-out: Topo II Inhibition (%) 20 μM): 43.2%
inhibition at 100 µM (Human Topoisomerase IIα; 100 μM compound, read-out: Topo II Inhibition (%) 100 μM): 83.5%
